In general, MIC refers to the lowest concentration that inhibits growth of the organism.

Common to all, as to format: cell-based
Settings in all cases: compound alone

The subject of assay [1] is isolates of strain MR-PSA (multiply resistant) Pseudomonas aeruginosa. The experiment in a line: MIC in microtiter plates, Mueller-Hinton broth (Examples 2 and 3). The procedure: For Examples 2 and 4, microorganisms employed in the assays were grown according to the procedure described in Stutman, et al., Antimicrobial Agents in Chemotherapy, Vol. 34, July 1990.
The final assays were then conducted in microtiter plates containing Mueller-Hinton broth 10^5 organisms were added to each well.
The minimal inhibitory concentrations, (MIC's), according to the procedure of Example 2, were tested against various isolates of strain MR-PSA, of Pseudomonas aeruginosa, except that Peptide 4 replaces Peptide 1.

Assay [2] deals with P.aeruginosa strain 107 (which is gentamicin - resistant). Description: MIC in trypticase soy broth, test wells (Example 1). The procedure:
(§1) Approximately 1-5×10^5 colony forming units (CFU's) of P.aeruginosa strain 27853 or of P.aeruginosa strain 107 (which is gentamicin - resistant) dispersed in 100 ul of trypticase soy broth (TSB) were added to each of a series of test wells. […] For purposes of this example, Peptide 1 is amide-terminated Magainin II, Peptide 2 is of the following structural formula: […]

In assay [3] the test system is P.aeruginosa strain 27853. The description is as above. The procedure: as §1

Where no end group is shown, it is not given here.

On to GIGKFLHSAKKFGKAFVGEIMNS-NH2 [Peptide 1], for which the minimum inhibitory concentration (MIC) is 32 µg/mL in assay [1] (Table 2, MR-PSA isolate 1); over 256 µg/mL in assay [1] (Table 2, MR-PSA isolate 2); 32 µg/mL in assay [1] (Table 2, MR-PSA isolate 3); 256 µg/mL in assay [1] (Table 2, MR-PSA isolate 4); over 32 µg/mL in assay [2]; over 32 µg/mL in assay [3].
